From PubChem BioAssay (NCI)
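48-hour exposure; five concentrations; linearly interpolated endpoints. TGI: concentration producing complete growth inhibition.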

Tests used:
Assay in all cases: DTP human tumour cell line panel, 48 h
786-0 renal = tested on: 786-0 renal
A498 renal = tested on: A498 renal
A549 NSCLC = tested on: A549 NSCLC
ACHN renal = tested on: ACHN renal
BT-549 breast = tested on: BT-549 breast
CAKI-1 renal = tested on: CAKI-1 renal
CCRF-CEM leukemia = tested on: CCRF-CEM leukemia
COLO 205 colon = tested on: COLO 205 colon
DU-145 prostate = tested on: DU-145 prostate
EKVX NSCLC = tested on: EKVX NSCLC
HCC-2998 colon = tested on: HCC-2998 colon
HCT-116 colon = tested on: HCT-116 colon
HCT-15 colon = tested on: HCT-15 colon
HL-60(TB) leukemia = tested on: HL-60(TB) leukemia
HOP-62 NSCLC = tested on: HOP-62 NSCLC
HOP-92 NSCLC = tested on: HOP-92 NSCLC
HS 578T breast = tested on: HS 578T breast
HT29 colon = tested on: HT29 colon
IGROV1 ovarian = tested on: IGROV1 ovarian
K-562 leukemia = tested on: K-562 leukemia
KM12 colon = tested on: KM12 colon
LOX IMVI melanoma = tested on: LOX IMVI melanoma
M14 melanoma = tested on: M14 melanoma
MALME-3M melanoma = tested on: MALME-3M melanoma
MCF7 breast = tested on: MCF7 breast
MDA-MB-231 breast = tested on: MDA-MB-231 breast
MDA-MB-435 = tested on: MDA-MB-435
MDA-N = tested on: MDA-N
MOLT-4 leukemia = tested on: MOLT-4 leukemia
NCI-H226 lung = tested on: NCI-H226 lung
NCI-H23 lung = tested on: NCI-H23 lung
NCI-H460 lung = tested on: NCI-H460 lung
NCI-H522 lung = tested on: NCI-H522 lung
NCI/ADR-RES ovarian = tested on: NCI/ADR-RES ovarian
OVCAR-3 ovarian = tested on: OVCAR-3 ovarian
OVCAR-4 ovarian = tested on: OVCAR-4 ovarian
OVCAR-5 ovarian = tested on: OVCAR-5 ovarian
OVCAR-8 ovarian = tested on: OVCAR-8 ovarian
PC-3 prostate = tested on: PC-3 prostate
RPMI-8226 leukemia = tested on: RPMI-8226 leukemia
RXF 393 renal = tested on: RXF 393 renal
SF-268 CNS = tested on: SF-268 CNS
SF-295 CNS = tested on: SF-295 CNS
SF-539 CNS = tested on: SF-539 CNS
SK-MEL-2 melanoma = tested on: SK-MEL-2 melanoma
SK-MEL-28 melanoma = tested on: SK-MEL-28 melanoma
SK-MEL-5 melanoma = tested on: SK-MEL-5 melanoma
SK-OV-3 ovarian = tested on: SK-OV-3 ovarian
SN12C renal = tested on: SN12C renal
SNB-19 CNS = tested on: SNB-19 CNS
SW-620 colon = tested on: SW-620 colon
T-47D breast = tested on: T-47D breast
TK-10 renal = tested on: TK-10 renal
U251 CNS = tested on: U251 CNS
UACC-257 melanoma = tested on: UACC-257 melanoma
UACC-62 melanoma = tested on: UACC-62 melanoma
UO-31 renal = tested on: UO-31 renal
SNB-75 CNS = tested on: SNB-75 CNS
SR leukemia = tested on: SR leukemia

Structure (SMILES): CN(C)CCNc1ccc(C(=O)NCCCN(C)CCCNC(=O)c2ccc(NCCN(C)C)c3c(=O)c4ccccc4[nH]c23)c2[nH]c3ccccc3c(=O)c12
- TGI (786-0 renal): 1.66 µM
- TGI (A498 renal): 1.12 µM
- TGI (A549 NSCLC): 0.318 µM
- TGI (ACHN renal): 6.24 µM
- TGI (BT-549 breast): 0.971 µM
- TGI (CAKI-1 renal): 31.8 µM
- TGI (CCRF-CEM leukemia): 1.02 µM
- TGI (COLO 205 colon): 0.727 µM
- TGI (DU-145 prostate): 2.48 µM
- TGI (EKVX NSCLC): 3.8 µM
- TGI (HCC-2998 colon): 0.135 µM
- TGI (HCT-116 colon): 0.409 µM
- TGI (HCT-15 colon): 38.5 µM
- TGI (HL-60(TB) leukemia): 2.74 µM
- TGI (HOP-62 NSCLC): 1.5 µM
- TGI (HOP-92 NSCLC): 0.616 µM
- TGI (HS 578T breast): 1.75 µM
- TGI (HT29 colon): 0.903 µM
- TGI (IGROV1 ovarian): 0.229 µM
- TGI (K-562 leukemia): 5.27 µM
- TGI (KM12 colon): 0.906 µM
- TGI (LOX IMVI melanoma): 0.286 µM
- TGI (M14 melanoma): 1.53 µM
- TGI (MALME-3M melanoma): 0.844 µM
- TGI (MCF7 breast): 0.489 µM
- TGI (MDA-MB-231 breast): 0.388 µM
- TGI (MDA-MB-435): 0.286 µM
- TGI (MDA-N): 0.583 µM
- TGI (MOLT-4 leukemia): 2.78 µM
- TGI (NCI-H226 lung): 0.148 µM
- TGI (NCI-H23 lung): 2.78 µM
- TGI (NCI-H460 lung): 1.43 µM
- TGI (NCI-H522 lung): 0.0685 µM
- TGI (NCI/ADR-RES ovarian): > 63.8 µM
- TGI (OVCAR-3 ovarian): 7.5 µM
- TGI (OVCAR-4 ovarian): 0.211 µM
- TGI (OVCAR-5 ovarian): 1.1 µM
- TGI (OVCAR-8 ovarian): 2.39 µM
- TGI (PC-3 prostate): 3.44 µM
- TGI (RPMI-8226 leukemia): 0.229 µM
- TGI (RXF 393 renal): 0.912 µM
- TGI (SF-268 CNS): 0.544 µM
- TGI (SF-295 CNS): 1.91 µM
- TGI (SF-539 CNS): < 0.0309 µM
- TGI (SK-MEL-2 melanoma): 0.414 µM
- TGI (SK-MEL-28 melanoma): 0.604 µM
- TGI (SK-MEL-5 melanoma): 1.06 µM
- TGI (SK-OV-3 ovarian): 1.3 µM
- TGI (SN12C renal): 1.02 µM
- TGI (SNB-19 CNS): 1.92 µM
- TGI (SW-620 colon): 2.36 µM
- TGI (T-47D breast): 2.64 µM
- TGI (TK-10 renal): 6.94 µM
- TGI (U251 CNS): 0.589 µM
- TGI (UACC-257 melanoma): 3.25 µM
- TGI (UACC-62 melanoma): 0.776 µM
- TGI (UO-31 renal): 15.8 µM

Structure (SMILES): COc1ccc2oc(=N)c(C(=O)Nc3cccc4ccccc34)cc2c1
- TGI (786-0 renal): 28 µM
- TGI (A498 renal): 39.2 µM
- TGI (A549 NSCLC): > 100 µM
- TGI (ACHN renal): > 100 µM
- TGI (BT-549 breast): > 100 µM
- TGI (CAKI-1 renal): > 100 µM
- TGI (CCRF-CEM leukemia): > 100 µM
- TGI (COLO 205 colon): > 100 µM
- TGI (DU-145 prostate): > 100 µM
- TGI (EKVX NSCLC): > 100 µM
- TGI (HCC-2998 colon): > 100 µM
- TGI (HCT-116 colon): > 100 µM
- TGI (HCT-15 colon): > 100 µM
- TGI (HL-60(TB) leukemia): > 100 µM
- TGI (HOP-62 NSCLC): 26.9 µM
- TGI (HS 578T breast): 72.1 µM
- TGI (HT29 colon): > 100 µM
- TGI (K-562 leukemia): > 100 µM
- TGI (KM12 colon): > 100 µM
- TGI (M14 melanoma): > 100 µM
- TGI (MALME-3M melanoma): 49.8 µM
- TGI (MCF7 breast): 63.9 µM
- TGI (MDA-MB-231 breast): 79.1 µM
- TGI (MDA-MB-435): 11.1 µM
- TGI (MDA-N): 18.8 µM
- TGI (NCI-H226 lung): > 100 µM
- TGI (NCI-H23 lung): > 100 µM
- TGI (NCI-H460 lung): > 100 µM
- TGI (NCI/ADR-RES ovarian): > 100 µM
- TGI (OVCAR-3 ovarian): 30.8 µM
- TGI (OVCAR-4 ovarian): 40.3 µM
- TGI (OVCAR-5 ovarian): > 100 µM
- TGI (PC-3 prostate): 31.1 µM
- TGI (RPMI-8226 leukemia): 57.9 µM
- TGI (RXF 393 renal): 20 µM
- TGI (SF-268 CNS): > 100 µM
- TGI (SF-295 CNS): 25.4 µM
- TGI (SF-539 CNS): > 100 µM
- TGI (SK-MEL-2 melanoma): 85.7 µM
- TGI (SK-MEL-28 melanoma): > 100 µM
- TGI (SK-MEL-5 melanoma): > 100 µM
- TGI (SK-OV-3 ovarian): 92.7 µM
- TGI (SN12C renal): > 100 µM
- TGI (SNB-19 CNS): 48 µM
- TGI (SNB-75 CNS): 32.9 µM
- TGI (SR leukemia): 28.5 µM
- TGI (SW-620 colon): > 100 µM
- TGI (T-47D breast): > 100 µM
- TGI (TK-10 renal): 51.1 µM
- TGI (U251 CNS): 50.2 µM
- TGI (UACC-257 melanoma): > 100 µM
- TGI (UACC-62 melanoma): 17.1 µM
- TGI (UO-31 renal): 30.5 µM
